Source: patent publication US20190106460A1, “BINDING INHIBITORS OF THE BETA. TRANSDUCIN REPEAT-CONTAINING PROTEIN” (priority 2011, published 2019)
Where two headings read alike, the source gives them in different places. Starred links: 1 amine or outer side, 2 acyl side, 3 side chain; linkers in the order of their positions; H or OH if unused. Non-standard residues stand in square brackets, D forms with d. Residues, ends and D or L forms follow the SMILES beside them. *: point of attachment. Benzenesulfonyl(4-OMe) = COc1ccc(S(=O)(=O)*)cc1; Benzoyl(2-COOH) = O=C(O)c1ccccc1C(=O)*; Phe(3-F) = N[C@@H](Cc1cccc(F)c1)C(=O)O; Phe(4-F) = N[C@@H](Cc1ccc(F)cc1)C(=O)O; 1Nal = N[C@@H](Cc1cccc2ccccc12)C(=O)O; 3Pal = N[C@@H](Cc1cccnc1)C(=O)O; X1 = CCCCOc1ccc(S(=O)(=O)*)cc1; Suc = O=C(CCC(=O)[*:2])[*:1]; Tos = Cc1ccc(S(=O)(=O)*)cc1

What was measured:
[1] = target: FBW7/Skp1 (Homo sapiens, UniProt Q969H0); assay: Selectivity assay vs other E3s: Fbw7; assay type: biochemical; details: for inhibition at 100 µM: value in brackets, read-out: % Inhibition Fbw7 @ (100 μM); for inhibition at 10 µM: read-out: % Inhibition Fbw7 @ 10 μM
FBW7/Skp1, sequence (Q969H0 whole entry, species assumed): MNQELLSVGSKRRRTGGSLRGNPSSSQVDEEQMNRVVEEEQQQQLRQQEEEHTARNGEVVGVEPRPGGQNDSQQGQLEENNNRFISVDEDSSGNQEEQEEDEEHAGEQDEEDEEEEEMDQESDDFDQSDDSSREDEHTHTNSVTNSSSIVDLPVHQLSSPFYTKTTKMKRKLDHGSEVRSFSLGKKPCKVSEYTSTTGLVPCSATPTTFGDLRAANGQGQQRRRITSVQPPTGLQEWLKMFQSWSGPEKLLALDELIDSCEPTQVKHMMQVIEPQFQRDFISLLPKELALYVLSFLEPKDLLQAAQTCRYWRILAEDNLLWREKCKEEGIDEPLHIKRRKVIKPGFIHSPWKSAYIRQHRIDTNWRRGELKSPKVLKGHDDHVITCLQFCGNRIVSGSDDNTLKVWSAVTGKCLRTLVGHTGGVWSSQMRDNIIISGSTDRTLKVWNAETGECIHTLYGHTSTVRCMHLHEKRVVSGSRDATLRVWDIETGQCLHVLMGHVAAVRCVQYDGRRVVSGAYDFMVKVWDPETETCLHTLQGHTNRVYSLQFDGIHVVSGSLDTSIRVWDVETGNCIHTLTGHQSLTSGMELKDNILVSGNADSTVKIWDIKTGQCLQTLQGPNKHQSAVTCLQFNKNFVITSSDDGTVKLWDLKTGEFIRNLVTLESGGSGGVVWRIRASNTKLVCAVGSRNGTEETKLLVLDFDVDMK
FBW7/Skp1, sequence (P63208 whole entry partner, species assumed): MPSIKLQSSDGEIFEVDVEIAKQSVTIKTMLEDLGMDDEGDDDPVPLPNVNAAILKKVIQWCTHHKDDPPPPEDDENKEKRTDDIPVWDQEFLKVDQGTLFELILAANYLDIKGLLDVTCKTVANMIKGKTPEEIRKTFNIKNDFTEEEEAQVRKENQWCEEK
FBW7/Skp1, sequence (Q13616 whole entry partner, species assumed): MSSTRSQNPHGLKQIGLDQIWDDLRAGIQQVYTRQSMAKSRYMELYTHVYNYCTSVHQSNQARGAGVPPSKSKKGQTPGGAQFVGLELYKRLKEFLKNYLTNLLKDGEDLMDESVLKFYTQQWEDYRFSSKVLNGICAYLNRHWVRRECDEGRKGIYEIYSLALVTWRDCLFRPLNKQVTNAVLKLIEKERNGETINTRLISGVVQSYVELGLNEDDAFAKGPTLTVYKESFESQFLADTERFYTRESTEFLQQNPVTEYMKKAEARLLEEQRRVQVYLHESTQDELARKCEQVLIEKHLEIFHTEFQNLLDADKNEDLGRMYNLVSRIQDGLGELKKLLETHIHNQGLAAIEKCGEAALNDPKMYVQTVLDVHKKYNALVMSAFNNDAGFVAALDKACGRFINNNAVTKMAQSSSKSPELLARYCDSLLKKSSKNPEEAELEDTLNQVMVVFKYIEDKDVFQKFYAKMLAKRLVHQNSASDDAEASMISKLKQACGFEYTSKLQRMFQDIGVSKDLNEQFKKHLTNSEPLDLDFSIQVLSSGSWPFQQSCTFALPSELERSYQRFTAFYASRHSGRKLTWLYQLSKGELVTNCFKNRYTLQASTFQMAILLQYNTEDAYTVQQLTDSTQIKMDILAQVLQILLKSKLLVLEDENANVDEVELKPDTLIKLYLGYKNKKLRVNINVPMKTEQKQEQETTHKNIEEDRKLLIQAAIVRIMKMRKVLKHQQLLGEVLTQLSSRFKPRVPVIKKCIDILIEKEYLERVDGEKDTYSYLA
FBW7/Skp1, sequence (P62877 whole entry partner, species assumed): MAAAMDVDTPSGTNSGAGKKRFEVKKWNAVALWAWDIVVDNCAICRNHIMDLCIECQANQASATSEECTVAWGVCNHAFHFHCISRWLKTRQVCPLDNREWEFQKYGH
Method: (§1) βTrCP Ubiquitination Assay and Selectivity Assays
(§2) Master mixes were prepared in a 50 mM Herpes buffer at pH 7.5, in 75 mM NaCl and 1 mM DTT without Mg or ATP and peptides were added to a final concentration of 100 μM. Reactions were incubated at room temperature for 30 minutes and then Mg/ATP was added to the mix. Reactions were further incubated for an additional 60 minutes and then stopped by adding SDS gel loading buffer and boiled for 5 minutes. Reactions were run on SDS-PAGE (10%) and transferred to nitrocellulose membranes and probed with HRP-Streptavidin.
FBW7 selectivity assays were performed in the same manner except using FBW7/Skp1 as E3 component and cyclin E as the substrate. Blots were probed using anti-cyclin E antibody.
(§3) Candidate compounds were tested for inhibition of Fbw7 and Skp2 as described above.

[2] = target: T1, βTrCP (Homo sapiens, UniProt Q9Y297); assay: Biotin pull down assay with biotinylated IκB peptide; assay type: binding; details: for Biotin Pulldown Assay 10 μM: 10 μM compound; for Biotin Pulldown Assay 100 μM: 100 μM compound
T1 sequence (Q9Y297 1-605): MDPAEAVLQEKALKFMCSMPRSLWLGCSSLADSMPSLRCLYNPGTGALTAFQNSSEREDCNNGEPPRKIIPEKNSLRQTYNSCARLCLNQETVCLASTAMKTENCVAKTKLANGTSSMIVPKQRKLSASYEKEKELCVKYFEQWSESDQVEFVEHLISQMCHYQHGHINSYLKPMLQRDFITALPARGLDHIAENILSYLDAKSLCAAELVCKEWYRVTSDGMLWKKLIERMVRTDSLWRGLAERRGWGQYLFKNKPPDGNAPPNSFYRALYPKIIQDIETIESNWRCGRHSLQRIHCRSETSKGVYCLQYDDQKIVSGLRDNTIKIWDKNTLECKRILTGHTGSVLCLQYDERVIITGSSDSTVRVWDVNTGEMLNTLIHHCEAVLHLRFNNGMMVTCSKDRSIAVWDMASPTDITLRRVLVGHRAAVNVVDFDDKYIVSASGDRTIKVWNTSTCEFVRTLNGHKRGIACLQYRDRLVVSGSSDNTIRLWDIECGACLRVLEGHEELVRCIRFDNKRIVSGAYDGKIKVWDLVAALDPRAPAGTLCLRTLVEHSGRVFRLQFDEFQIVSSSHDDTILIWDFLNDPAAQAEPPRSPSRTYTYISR

[3] = target: βTrCP (Homo sapiens, UniProt Q9Y297); assay: Fluorescence polarisation (FP) binding assay with fluorescein-tagged IκB peptide
Target sequence in this assay (P63208 whole entry partner, one chain of several): as the sequence (P63208 whole entry partner, species assumed) above

[4] = target: Skp2 (Homo sapiens, UniProt Q13309); assay: Selectivity assay vs other E3s: Skp2; assay type: biochemical; details: for inhibition at 100 µM: value in brackets, read-out: % Inhibition Skp2 @ (100 μM); for inhibition at 10 µM: read-out: % Inhibition Skp2 @ 10 μM
Skp2, sequence (Q13309 whole entry, species assumed): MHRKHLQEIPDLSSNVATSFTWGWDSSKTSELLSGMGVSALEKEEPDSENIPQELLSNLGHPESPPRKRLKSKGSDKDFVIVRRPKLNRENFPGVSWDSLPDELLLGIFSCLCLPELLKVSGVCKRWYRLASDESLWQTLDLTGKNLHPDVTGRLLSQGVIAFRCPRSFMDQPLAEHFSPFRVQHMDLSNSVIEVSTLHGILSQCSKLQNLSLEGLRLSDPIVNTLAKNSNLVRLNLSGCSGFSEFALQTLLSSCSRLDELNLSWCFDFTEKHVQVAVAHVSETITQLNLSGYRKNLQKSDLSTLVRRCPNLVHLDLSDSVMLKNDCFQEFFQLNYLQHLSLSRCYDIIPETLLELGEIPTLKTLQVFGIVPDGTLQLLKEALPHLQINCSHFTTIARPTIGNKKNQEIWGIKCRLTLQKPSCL
Skp2, sequence (P63208 whole entry partner, species assumed): as the sequence (P63208 whole entry partner, species assumed) above
Skp2, sequence (Q13616 whole entry partner, species assumed): as the sequence (Q13616 whole entry partner, species assumed) above
Skp2, sequence (P62877 whole entry partner, species assumed): as the sequence (P62877 whole entry partner, species assumed) above
Method: as §1, §2, §3

[5] = target: β-TrCP1/Skp1 (Homo sapiens, UniProt Q9Y297); assay: βTrCP ubiquitination assay (Ub assay); assay type: biochemical; details: for Ub Assay 10 μM: 10 μM compound; for Ub Assay 100 μM: 100 μM compound
β-TrCP1/Skp1, sequence (P63208 2-163 partner limits assumed, one chain of several): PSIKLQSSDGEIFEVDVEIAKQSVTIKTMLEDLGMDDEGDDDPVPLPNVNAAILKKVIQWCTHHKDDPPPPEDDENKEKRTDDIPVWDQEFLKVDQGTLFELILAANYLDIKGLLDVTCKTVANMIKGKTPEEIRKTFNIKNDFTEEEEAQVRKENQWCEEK
Method: as §1
0.5 μM Peptide substrate (biotin)
as §2
Candidate compounds were tested in duplicate at both 10 and 100 μM against the E3 ligase cascades βTrCP(IκBα) and βTrCP(β-catenin). The E3 assays were carried out according to the component concentrations detailed in Table 9. In each case the E2 was HA,6His-UbcH3-(hu,FL), the E1 was 6His-UBE1-(hu,FL) and the ubiquitin (Sigma U6253) was biotinylated at a 5:1 ratio. Substrate phosphorylation was performed in the absence of compound; consequently any observed signal modulation should not reflect inhibition of the up-stream kinase reaction. All other steps (E1, E2 and substrate ubiquitination) were carried out in the presence of compound. The stopped reaction mix (10 μl) was added to an ECL plate loaded with anti c-Myc ( 1/500 Dilution, Millipore 05-724) and blocked with 5% BSA. Binding was allowed to proceed for 1 hour at RT before a wash step (3 40 μl PBST washes). Detection was achieved by binding SA-Ru TAG at 1 μg/ml (1 hour @ RT, 3 40 μl PBST washes) before reading on an MSD Sector Imager 6000.
Assays were performed as described above

[6] = Table 11, with spread, read-out: FP IC50/μM
[7] = Tables 1, 3, 7, 8, 10 nM fluorescein-tagged IκB peptide, read-out: FP Assay IC50/μM

`Cc1ccc(S(=O)(=O)N[C@H](CC(=O)O)C(=O)N[C@@H](CCC(=O)O)C(=O)NCC(=O)N[C@@H](Cc2cccc(F)c2)C(=O)N[C@@H](Cc2c[nH]c3ccccc23)C(=O)N[C@@H](CC(=O)O)C(N)=O)cc1` [UBP027, Ts-dEGF(3F)WD-NH2] (Tos-[dD]EG[Phe(3-F)]WD-NH2) was tested, and the inhibition at 100 µM [1] was 8%, the inhibition at 10 µM [1] was 3% and the “Biotin Pulldown Assay 10 μM” value [2] was “s. reduces/”. The “Biotin Pulldown Assay 100 μM” value [2] was “inhibits”, the IC50 [3, 6] was 0.034 ± 0.005 µM and the IC50 [3, 7] was 0.034 µM. For the same compound, the inhibition at 100 µM [4] was 6%, the inhibition at 10 µM [4] was 4% and the “Ub Assay 10 μM” value [5] was “inhibits/”. For the same compound, the “Ub Assay 100 μM” value [5] was “inhibits”.

In the case of `CCCCOc1ccc(S(=O)(=O)N[C@H](CC(=O)O)C(=O)N[C@@H](CCC(=O)O)C(=O)NCC(=O)N[C@@H](Cc2cccc(F)c2)C(=O)N[C@@H](Cc2c[nH]c3ccccc23)C(=O)N[C@@H](CCC(=O)O)C(N)=O)cc1` [UBP030, 4-(BuO)-PhSO2-dEGF(3F)WE-NH2] (X1-[dD]EG[Phe(3-F)]WE-NH2), the inhibition at 100 µM [1] is reported as 12%, the inhibition at 10 µM [1] is reported as 7% and the “Biotin Pulldown Assay 10 μM” value [2] is reported as “reduces/”. The “Biotin Pulldown Assay 100 μM” value [2] was “inhibits”, the IC50 [3, 6] was 0.056 ± 0.008 µM and the IC50 [3, 7] was 0.056 µM. For the same compound, the inhibition at 100 µM [4] was 13%, the inhibition at 10 µM [4] was 0% and the “Ub Assay 10 μM” value [5] was “reduces/”. The “Ub Assay 100 μM” value [5] was “inhibits”.

With `COc1ccc(S(=O)(=O)N[C@H](CC(=O)O)C(=O)N[C@@H](CCC(=O)O)C(=O)NCC(=O)N[C@@H](Cc2cccc(F)c2)C(=O)N[C@@H](Cc2c[nH]c3ccccc23)C(=O)N[C@@H](CCC(=O)O)C(N)=O)cc1` [4-(MeO)-PhSO2-dEGF(3F)WE-NH2] ({Benzenesulfonyl(4-OMe)}-[dD]EG[Phe(3-F)]WE-NH2) the inhibition at 100 µM [1] was 18%, the inhibition at 10 µM [1] was 0% and the IC50 [3, 6] was 0.017 ± 0.002 µM. For the same compound, the inhibition at 100 µM [4] was 12% and the inhibition at 10 µM [4] was 7%.

With `Cc1ccc(S(=O)(=O)N[C@H](CC(=O)O)C(=O)N[C@@H](CCC(=O)O)C(=O)NCC(=O)N[C@@H](Cc2cccc(F)c2)C(=O)N[C@@H](Cc2c[nH]c3ccccc23)C(=O)N[C@@H](CCC(=O)O)C(N)=O)cc1` [Ts-dEGF(3F)WE-NH2] (Tos-[dD]EG[Phe(3-F)]WE-NH2) the inhibition at 100 µM [1] was 0%, the inhibition at 10 µM [1] was 9% and the IC50 [3, 6] was 0.029 ± 0.005 µM. For the same compound, the inhibition at 100 µM [4] was 25% and the inhibition at 10 µM [4] was 19%.

Compound `Cc1ccc(S(=O)(=O)N[C@@H](CC(=O)O)C(=O)N[C@@H](CCC(=O)O)C(=O)NCC(=O)N[C@@H](Cc2cccc(F)c2)C(=O)N[C@@H](Cc2c[nH]c3ccccc23)C(=O)N[C@@H](CCC(=O)O)C(N)=O)cc1` [Ts-DEGF(3F)WE-NH2] (Tos-DEG[Phe(3-F)]WE-NH2) has an inhibition at 100 µM [1] of 8%, an inhibition at 10 µM [1] of 0% and an IC50 [3, 6] of 0.018 ± 0.002 µM. The inhibition at 100 µM [4] was 7% and the inhibition at 10 µM [4] was 0%.

`COc1ccc(S(=O)(=O)N[C@@H](CC(=O)O)C(=O)N[C@@H](CCC(=O)O)C(=O)NCC(=O)N[C@@H](Cc2cccc(F)c2)C(=O)N[C@@H](Cc2c[nH]c3ccccc23)C(=O)N[C@@H](CCC(=O)O)C(N)=O)cc1` [4-(MeO)-PhSO2-DEGF(3F)WE-NH2] ({Benzenesulfonyl(4-OMe)}-DEG[Phe(3-F)]WE-NH2) showed an inhibition at 100 µM [1] of 8%, an inhibition at 10 µM [1] of 0% and an IC50 [3, 6] of 0.027 ± 0.002 µM. The inhibition at 100 µM [4] was 3% and the inhibition at 10 µM [4] was 15%.

With `CC[C@H](C)[C@H](NC(=O)CNC(=O)[C@H](CCC(=O)O)NC(=O)c1ccccc1C(=O)O)C(=O)N[C@@H](Cc1ccccc1)C(=O)N[C@@H](CCC(=O)O)C(N)=O` [Phth-EGIFE-NH2] ({Benzoyl(2-COOH)}-EGIFE-NH2) the IC50 [3, 7] was greater than 100 µM.

Work on `CC[C@H](C)[C@H](NC(=O)CNC(=O)[C@H](CCC(=O)O)NC(=O)[C@H](N)CC(=O)O)C(=O)N[C@@H](Cc1ccccc1)C(=O)N[C@@H](CC(=O)O)C(N)=O` [dEGIFD-NH2] (H-[dD]EGIFD-NH2) yielded an IC50 [3, 7] greater than 100 µM.

For `NC(=O)[C@H](CCC(=O)O)NC(=O)[C@H](Cc1cccc2ccccc12)NC(=O)[C@H](Cc1cccnc1)NC(=O)CNC(=O)[C@H](CCC(=O)O)NC(=O)CCC(=O)O` [Suc-EG-3Pal-1Nal-E-NH2] (Suc-EG[3Pal][1Nal]E-NH2), the IC50 [3, 7] was 3.63 µM.

With `NC(=O)[C@H](Cc1ccc(F)cc1)NC(=O)[C@H](Cc1ccccc1)NC(=O)CNC(=O)[C@H](CCC(=O)O)NC(=O)CCC(=O)O` [Suc-EGF-F(4F)-NH2] (Suc-EGF[Phe(4-F)]-NH2) the IC50 [3, 7] was greater than 100 µM.

In the case of `NC(=O)[C@H](Cc1ccc(F)cc1)NC(=O)[C@H](Cc1ccc(O)cc1)NC(=O)CNC(=O)[C@H](CCC(=O)O)NC(=O)CCC(=O)O` [Suc-EGY-F(4F)-NH2] (Suc-EGY[Phe(4-F)]-NH2), the IC50 [3, 7] is reported as 71 µM.

In the case of `C[C@H](NC(=O)CCC(=O)O)C(=O)NCC(=O)N[C@@H](Cc1ccccc1)C(=O)N[C@@H](Cc1ccccc1)C(=O)N[C@@H](CCC(=O)O)C(N)=O` [Suc-AGFFE-NH2] (Suc-AGFFE-NH2), the IC50 [3, 7] is reported as greater than 100 µM.
